Experimental data reported in PMC9029529, “Distinct Mechanisms of Cytotoxicity in Novel Nitrogenous Heterocycles: Future Directions for a New Anti-Cancer Agent” (Molecules, 2022).

How the values were obtained:
MDA-MB-231 cells [1] = experiment: MTT assay, MDA-MB-231; assay type: cell-based, human; conditions: Homo sapiens, MDA-MB-231, 24 h, 0 to 250 μM, read-out: IC50 Breast Cancer (MDA-MB-231)
Description: (§1) To establish the cytotoxic effect of the nitrogenous derivatives, cells were treated with various concentrations of the drugs ranging from 0 to 250 μM. Following a 24 h incubation period, cell viability was assessed using the MTT assay. Mitoxantrone served as a positive control to evaluate growth inhibition. Since heterogeneity is a hallmark of cancer, the study included cell lines with diverse genomic and proteomic profiles. […] In this regard, further optimization would be required to increase the selective therapeutic potential of compound 9. To determine whether the anti-proliferative effect of the nitrogen derivatives could be translated to other malignancies, we tested the cytotoxic effect on the HCT8 (colorectal cancer) cell line. HCT8 is an adenocarcinoma driven by the Kirsten Rat Sarcoma (KRAS) mutation, unlike MCF-10A [28].
(§2) The MTT assay was utilized to examine the imidazole derivatives’ anti-proliferative activity against MCF-10A, MDA-MB-231, and HCT8 cell lines, purchased from ATCC, USA [47]. Firstly, 5 × 10^3 cells/well were seeded in a 96-well plate in 100 μL of growth medium and were subsequently cultured overnight with various concentrations of each compound ranging from 0 to 250 µM [48]. The media was aspirated, and 50 µL of serum-free media and 50 µL of MTT solution were added to each well. Next, cells were incubated at 37 °C for 3 h, then 150 µL of MTT solvent was added into each well. After that, plates were wrapped in foil and agitated for 15 min on an orbital shaker. Finally, the absorbance was measured within 1 h at OD590 nm. Half-maximal inhibitory concentration IC50 values (μM) were calculated for each compound from the dose–response curve. Experiments were performed in triplicates.

HCT8 cells [2] = experiment: MTT assay, HCT8; assay type: cell-based; conditions: Homo sapiens, HCT-8, 24 h, 0 to 250 μM, read-out: IC50 Colorectal Cancer (HCT8)
Description: as §1, §2

KAIMRC2 cells = experiment: CellTiter-Glo assay, KAIMRC2; assay type: cell-based; conditions: Homo sapiens, 24 h, read-out: IC50 Breast Cancer KAIMRC2
Description: (§3) To validate the anti-proliferative activity of the imidazole derivatives, the compounds were tested against several cancer cell lines, which included breast cancer (MDA-MB-231, KAIMRC1, and KAIMRC2), colorectal cancer (HCT8), and acute promyelocytic leukemia cells (HL60). KAIMRC1 was isolated from a person with stage II-B breast cancer and is ER+/PR+ and HER2-. In comparison, KAIMRC2 was isolated from a person with metastasized breast cancer and is a triple-negative (ER-/PR-, and HER2-) tumor cell line.
(§4) The CellTiter-Glo assay (Promega™, Madison, WI, USA) was used to evaluate imidazole and oxazolone derivatives cytotoxicity against various cancer cell lines; MCF-10A, HL60, MDA-MB-231, and HCT8, purchased from ATCC, USA, except KAIMRC1 and KAIMRC2, which were isolated, established, and characterized in the core laboratory facility KAIMRC, Riyadh, Saudi Arabia. The cells were seeded in white 96-well plates at a density of 5 × 10^3 cells/well in a 100 μL of growth medium with various concentrations of each compound ranging from 0 to 250 µM. Cells were incubated at 37 °C for 24 h. Plates were equilibrated at RT for 30 min. A quantity of 100 µL of CellTiter-Glo reagent was added to each well and mixed for 2 min on an orbital shaker. Plates were incubated for 10 min at RT before measuring the luminescence using an Envision plate reader (Perkin Elmer). Half-maximal inhibitory concentration IC50 values (μM) were calculated for each imidazole derivative from the dose–response curve. The cytotoxic effect at a concentration <10 µM was considered strongly active and from 11 to 100 µM was considered moderately active, whereas above 100 µM was deemed non-active. Mitoxantrone was utilized as a positive control. Experiments were performed in triplicates.

MDA-MB-231 cells [3] = experiment: CellTiter-Glo assay, MDA-MB-231; assay type: cell-based; conditions: Homo sapiens, 24 h, read-out: IC50 Breast Cancer MDA-MB-231
Description: as §3, §4

KAIMRC1 cells = experiment: CellTiter-Glo assay, KAIMRC1; assay type: cell-based; conditions: Homo sapiens, 24 h, read-out: IC50 Breast Cancer KAIMRC1
Description: as §3, §4

MCF-10A cells = experiment: MTT assay, MCF-10A; assay type: cell-based, human; conditions: Homo sapiens, MCF-10A, 24 h, 0 to 250 μM, read-out: IC50 Non-Malignant Breast Epithelial Cells (MCF-10A)
Description: as §1, §2

HCT8 cells [4] = experiment: CellTiter-Glo assay, HCT8; assay type: cell-based; conditions: Homo sapiens, HCT-8, 24 h, read-out: IC50 Colorectal Cancer HCT8
Description: as §3, §4

HL60 cells = experiment: CellTiter-Glo assay, HL60; assay type: cell-based, human; conditions: Homo sapiens, HL-60, 24 h, read-out: IC50 Leukemia HL60
Description: as §3, §4

SMILES	IC50 (MDA-MB-231 cells [1]) [µM]	IC50 (HCT8 cells [2]) [µM]	IC50 (KAIMRC2 cells) [µM]	IC50 (MDA-MB-231 cells [3]) [µM]	IC50 (KAIMRC1 cells) [µM]	IC50 (MCF-10A cells) [µM]	IC50 (HCT8 cells [4]) [µM]	IC50 (HL60 cells) [µM]
O=C1/C(=C/c2ccccc2O)N=C(c2ccccc2)N1Nc1ccc([N+](=O)[O-])cc1[N+](=O)[O-] [Compound 10]	56							
O=C1OC(c2ccccc2)=N/C1=C\c1ccco1 [Compound 7]	23	73.5	87.9	60.9	39.2	63	91.2	67.4
CN(C)c1ccc(/C=C2\N=C(c3ccccc3)OC2=O)cc1 [Compound 4]	69.4							
NN1C(=O)/C(=C/c2ccccc2)N=C1c1ccccc1 [Compound 14]	139		161	243	243			
COc1ccc(/C=C2\N=C(c3ccccc3)N(N)C2=O)cc1 [Compound 13]	78.5							
COc1cc(/C=C2\N=C(c3ccccc3)OC2=O)ccc1O [Compound 6]	50.6	70.8				50.4		
COc1cc(/C=C2\N=C(c3ccccc3)N(Nc3ccc([N+](=O)[O-])cc3[N+](=O)[O-])C2=O)ccc1O [Compound 11]	57.1		32.2	45.4	24.8		40.4	20.9
O=C1OC(c2ccccc2)=N/C1=C\c1ccccc1O [Compound 5]	39.6	39.1	30.3	52.1	28.6	34.2	63.7	17.9
O=C1OC(c2ccccc2)=N/C1=C\C=C\c1ccccc1 [Compound 2]	43.6	72.2	121		104	65.5	121	
COc1cccc(/C=C2\N=C(c3ccccc3)OC2=O)c1 [Compound 3]	40		64.3		58.6			
O=C1/C(=C/c2ccco2)N=C(c2ccccc2)N1Nc1ccc([N+](=O)[O-])cc1[N+](=O)[O-] [Compound 12]	50.8							
O=C1OC(c2ccccc2)=N/C1=C\c1ccccc1 [Compound 1]	22.9	51.1	59.2		62.2			
O=C1c2c(O)ccc(O)c2C(=O)c2c(NCCNCCO)ccc(NCCNCCO)c21 [Mitoxantrone, reference compound]	3.17	0.711	0.801	1.94	1.71	2.9	5.62	0.125
